We go through four compounds from publication PMC3406087, “The Molecular Basis of Drug Resistance against Hepatitis C Virus NS3/4A Protease Inhibitors” (PLoS Pathogens, 2012).

Test [1] concerns A156T genotype 1a HCV Con1 luciferase reporter replicon in Huh7 cells. Kind of test: Viral replicon-based inhibition assay, A156T variant. It counts as cell-based, HCV genotype 1a. To be noted: Hepatitis C virus, Huh-7, 96 h, read-out: Replicon - IC50, A156T. The source says:
(§1) Single mutations (R155K, D168A, or A156T) were introduced into the NS3 region of genotype 1a HCV Con1 luciferase reporter replicon using the mega-primer method of mutagenesis. Replicon RNA of each protease variant was introduced into Huh7 cells by electroporation.
(A replicon is a self-replicating genome or part of one, used to study replication in cells.)

For test [2], the system named is R155K genotype 1a HCV Con1 luciferase reporter replicon in Huh7 cells. Kind of test: Viral replicon-based inhibition assay, R155K variant. It counts as cell-based, HCV genotype 1a. The note with it: Hepatitis C virus, Huh-7, 96 h, read-out: Replicon - IC50, R155K.
Excerpt: as §1

Test [3] deals with D168A genotype 1a HCV Con1 luciferase reporter replicon in Huh7 cells. Put plainly: Viral replicon-based inhibition assay, D168A variant. The class given is cell-based, HCV genotype 1a. The note with it: Hepatitis C virus, Huh-7, 96 h, read-out: Replicon - IC50, D168A.
Excerpt: as §1

Test [4] has as its target genotype 1a HCV NS3/4A protease domain (wild-type) (Hepatitis C virus genotype 1a, UniProt A8DG50). Put plainly: biochemical. On the set-up: species or system HCV genotype 1a.
Test [5] has as its system wild-type genotype 1a HCV Con1 luciferase reporter replicon in Huh7 cells. Kind of test: Viral replicon-based inhibition assay, wild-type. To be noted: Hepatitis C virus, Huh-7, luciferase activity 96 hours after electroporation, read-out: Replicon - IC50, WT. The class given is cell-based, HCV genotype 1a. The source says:
. The antiviral activities against the resistant variants trended with changes in binding affinities measured in enzyme inhibition assays (Table 1). […]. Single mutations (R155K, D168A, or A156T) were introduced into the NS3 region of genotype 1a HCV Con1 luciferase reporter replicon using the mega-primer method of mutagenesis. Replicon RNA of each protease variant was introduced into Huh7 cells by electroporation. […]. The drug concentrations required to inhibit replicon replication by 50% (IC50) were calculated directly from the drug inhibition curves.

Another test relates to genotype 3 viruses. To be noted: genotype 3 viruses (Q168, T123); cited from earlier work.
For test [6], the target named is T1, genotype 1a HCV NS3/4A protease domain A156T (Hepatitis C virus genotype 1a, UniProt P27958, A1182T).
T1 construct: single-chain construct of the genotype 1a NS3/4A protease domain; His-tag (cleaved yes); made in house; host or cells: E. coli BL21 (DE3)
Put plainly: biochemical. On the set-up: species or system HCV genotype 1a.

The mark [7] stands for this setting: apparent Ki, Morrison equation, 5 nM protease, triplicate, average ± standard deviation, read-out: Binding - Ki, WT.

SMILES strings stand for the structures. Read-outs that look alike come from different tables or passages of the source.

For the compound `CCC[C@H](NC(=O)[C@@H]1[C@H]2CCC[C@H]2CN1C(=O)[C@@H](NC(=O)[C@@H](NC(=O)c1cnccn1)C1CCCCC1)C(C)(C)C)C(=O)C(=O)NC1CC1` [Telaprevir (VX-950), Telaprevir], the IC50 (usually the midpoint of a concentration-inhibition curve) in test [1] is above 50000 nM; in test [2], 5300 nM; in test [3] it was 420 nM; in test [5], 1030 nM. Moreover, in test [4], the Ki was 34.4 ± 3 nM.
Take `C=C[C@@H]1C[C@]1(NC(=O)[C@@H]1C[C@@H]2CN1C(=O)[C@H](C(C)(C)C)NC(=O)O[C@@H]1C[C@H]1CCCCCc1nc3ccc(OC)cc3nc1O2)C(=O)NS(=O)(=O)C1CC1` [MK-5172]: the IC50 was found to be 108 nM in test [1], 0.55 nM in test [2], 13 nM in test [3] and 0.11 nM in test [5].
As to `CC[C@@H]1C[C@]1(NC(=O)[C@@H]1C[C@@H]2CN1C(=O)[C@H](C(C)(C)C)NC(=O)OCC(C)(C)CCCCc1cccc3c1CN(C3)C(=O)O2)C(=O)NS(=O)(=O)C1CC1` [Vaniprevir (MK-7009), Vaniprevir], the IC50 is 176 nM in test [1], above 400 nM in test [2], above 400 nM in test [3] and 0.34 nM in test [5]. For the same compound, the Ki in test [4] (setting [7]) is 0.74 ± 0.07 nM. The “Efficacy against genotype 3 viruses” value in the test on genotype 3 viruses is “reduced efficacy”.
As to `CC(C)(C)OC(=O)N[C@H]1CCCCC/C=C\[C@@H]2C[C@@]2(C(=O)NS(=O)(=O)C2CC2)NC(=O)[C@@H]2C[C@@H](OC(=O)N3Cc4cccc(F)c4C3)CN2C1=O` [Danoprevir (ITMN-191), Danoprevir], the IC50 in test [1] is 5.7 nM; in test [2], above 100 nM; in test [3], 48 nM; in test [5], 0.24 nM. Besides, the Ki in test [4] (setting [7]) was found to be 1 ± 0.1 nM; in test [6], 44.8 ± 3.6 nM. Also, the “Efficacy against genotype 3 viruses” value with genotype 3 viruses was “reduced efficacy”.
